# Measured values taken from US20230111310A1, “CARBOXYLIC ACID DERIVATIVE-SUBSTITUTED IMINO ARYL COMPOUND, PREPARATION METHOD THEREFOR, HERBICIDAL COMPOSITION AND USE THEREOF” (Qingdao Kingagroot Chemical Compound Co., Ltd., priority 2020, published 2023).
# Columns and labels:
# Test in all cases: Weeding effect in post-emergence stage
# Format in all cases: in vivo
# Details in all cases: Dose 15 g/ha; level of fresh weight growth control rate
# Echinochloa crusgalli = tested on: Echinochloa crusgalli
# Text: (§1) The activity level criteria for plant damage (i.e., growth control rate) are as follows:
# (§2) Monocotyledonous and dicotyledonous weed seeds (Descurainia sophia, Capsella bursa-pastoris, Abutilon theophrasti, Galium aparine, Stellaria media, Lithospermum arvense, rorippa indica, Alopecurus aequalis, Alopecurus japonicus, Eleusine indica, Beckmannia syzigachne, Sclerochloa dura, Conyza Canadensis, Phleum paniculatum, Veronica didyma Tenore, Bromus japonicus, Aegilops tauschii, Phalaris arundinacea, Amaranthus retroflexus, Chenopodiaceae, Commelina communis, Sonchus arvensis, Convolvulus arvensis, Cirsium setosum, Bidens tripartita L., Solanum nigrum, Acalypha australis, Digitaria sanguinalis, Echinochloa crusgalli, Setaria viridis, Setaria glauca, Leptochloa chinensis, Monochoria vaginalis, Sagittaria trifolia, Scirpus juncoides, Cyperus rotundus, Cyperus iria, Cyperus difformis, Fimbristylis, Portulaca oleracea, Xanthium sibiricum, Pharbitis nil, etc.) and major crop seeds (wheat, corn, rice, soybean, cotton, oilseed rape, millet, sorghum, potato, sesame, ricinus, etc.) were placed in plastic pots filled with soil, then covered with 0.5-2 cm of soil, allowed to grow in a good greenhouse environment. After 2 weeks of sowing, the test plants were treated in the 2-3 leaf stage. The tested compounds of the present invention were respectively dissolved in acetone, then added with Tween 80 and 1.5 liter/ha of emulsifiable concentrate of methyl oleate as synergist, diluted with a certain amount of water to obtain a solution with a certain concentration, and sprayed with a spray tower onto the plants. After the application, the plants were cultured for 3 weeks in the greenhouse, and then the experimental results of the weeding were counted. The doses of the used compounds were 500, 250, 125, 60, 30, 15, 7.5 g/ha, and the averages were obtained by repeating for three times.
# Alopecurus japonicus = tested on: Alopecurus japonicus
# Text: as §1
# as §2, with “The doses of the used compounds were 500, 250, 125, 60, 30, 15, 7.5 g/ha, and the averages were obtained by repeating for three times.” left out
# Abutilon theophrasti = tested on: Abutilon theophrasti
# Text: as §1
# as §2, with “The doses of the used compounds were 500, 250, 125, 60, 30, 15, 7.5 g/ha, and the averages were obtained by repeating for three times.” left out
# Digitaria sanguinalis = tested on: Digitaria sanguinalis
# Text: as §1
# as §2, with “The doses of the used compounds were 500, 250, 125, 60, 30, 15, 7.5 g/ha, and the averages were obtained by repeating for three times.” left out
# Eleusine indica = tested on: Eleusine indica
# Text: as §1
# as §2, with “The doses of the used compounds were 500, 250, 125, 60, 30, 15, 7.5 g/ha, and the averages were obtained by repeating for three times.” left out
# Setaria viridis = tested on: Setaria viridis
# Text: as §1
# as §2, with “The doses of the used compounds were 500, 250, 125, 60, 30, 15, 7.5 g/ha, and the averages were obtained by repeating for three times.” left out
Structure (SMILES),"Weeding effect in post-emergence stage, Echinochloa crusgalli (Echinochloa crusgalli)","Weeding effect in post-emergence stage, Alopecurus japonicus (Alopecurus japonicus)","Weeding effect in post-emergence stage, Abutilon theophrasti (Abutilon theophrasti)","Weeding effect in post-emergence stage, Digitaria sanguinalis (Digitaria sanguinalis)","Weeding effect in post-emergence stage, Eleusine indica (Eleusine indica)","Weeding effect in post-emergence stage, Setaria viridis (Setaria viridis)"
CCCOC(=O)C(C)O/N=C/c1cc(-n2c(=O)n(C)c(=S)n(C)c2=O)c(F)cc1Cl (racemic) [Compound 4],5 (Level 5: growth control rate is above 85%),5 (Level 5: growth control rate is above 85%),5 (Level 5: growth control rate is above 85%),5 (Level 5: growth control rate is above 85%),5 (Level 5: growth control rate is above 85%),5 (Level 5: growth control rate is above 85%)
CC(C)OC(=O)C(C)O/N=C/c1cc(-n2c(=O)n(C)c(=S)n(C)c2=O)c(F)cc1Cl (racemic) [Compound 5],5 (Level 5: growth control rate is above 85%),5 (Level 5: growth control rate is above 85%),5 (Level 5: growth control rate is above 85%),5 (Level 5: growth control rate is above 85%),5 (Level 5: growth control rate is above 85%),5 (Level 5: growth control rate is above 85%)
C=CCCOC(=O)C(C)O/N=C/c1cc(-n2c(=O)n(C)c(=S)n(C)c2=O)c(F)cc1Cl (racemic) [Compound 6],5 (Level 5: growth control rate is above 85%),5 (Level 5: growth control rate is above 85%),5 (Level 5: growth control rate is above 85%),5 (Level 5: growth control rate is above 85%),5 (Level 5: growth control rate is above 85%),5 (Level 5: growth control rate is above 85%)
CC(O/N=C/c1cc(-n2c(=O)n(C)c(=S)n(C)c2=O)c(F)cc1Cl)C(=O)OCC1CC1 (racemic) [Compound 9],5 (Level 5: growth control rate is above 85%),5 (Level 5: growth control rate is above 85%),5 (Level 5: growth control rate is above 85%),5 (Level 5: growth control rate is above 85%),5 (Level 5: growth control rate is above 85%),5 (Level 5: growth control rate is above 85%)
CC(O/N=C/c1cc(-n2c(=O)n(C)c(=S)n(C)c2=O)c(F)cc1Cl)C(=O)OCCF (racemic) [Compound 10],5 (Level 5: growth control rate is above 85%),5 (Level 5: growth control rate is above 85%),5 (Level 5: growth control rate is above 85%),5 (Level 5: growth control rate is above 85%),5 (Level 5: growth control rate is above 85%),5 (Level 5: growth control rate is above 85%)
CC(O/N=C/c1cc(-n2c(=O)n(C)c(=S)n(C)c2=O)c(F)cc1Cl)C(=O)OCCCF (racemic) [Compound 11],5 (Level 5: growth control rate is above 85%),5 (Level 5: growth control rate is above 85%),5 (Level 5: growth control rate is above 85%),5 (Level 5: growth control rate is above 85%),5 (Level 5: growth control rate is above 85%),5 (Level 5: growth control rate is above 85%)
CC(O/N=C/c1cc(-n2c(=O)n(C)c(=S)n(C)c2=O)c(F)cc1Cl)C(=O)OCCCC(F)(F)F (racemic) [Compound 12],5 (Level 5: growth control rate is above 85%),5 (Level 5: growth control rate is above 85%),5 (Level 5: growth control rate is above 85%),5 (Level 5: growth control rate is above 85%),5 (Level 5: growth control rate is above 85%),5 (Level 5: growth control rate is above 85%)
COCCOC(=O)C(C)O/N=C/c1cc(-n2c(=O)n(C)c(=S)n(C)c2=O)c(F)cc1Cl (racemic) [Compound 14],5 (Level 5: growth control rate is above 85%),4 (Level 4: growth control rate is greater than or equal to 60% and less than 85%),5 (Level 5: growth control rate is above 85%),5 (Level 5: growth control rate is above 85%),5 (Level 5: growth control rate is above 85%),5 (Level 5: growth control rate is above 85%)
CCOC(=O)COC(=O)C(C)O/N=C/c1cc(-n2c(=O)n(C)c(=S)n(C)c2=O)c(F)cc1Cl (racemic) [Compound 17],5 (Level 5: growth control rate is above 85%),5 (Level 5: growth control rate is above 85%),5 (Level 5: growth control rate is above 85%),5 (Level 5: growth control rate is above 85%),5 (Level 5: growth control rate is above 85%),5 (Level 5: growth control rate is above 85%)
CCOC(=O)C(C)O/N=C/c1cc(-n2c(=O)n(C)c(=S)n(C)c2=O)c(F)cc1C(F)(F)F (racemic) [Compound 86],4 (Level 4: growth control rate is greater than or equal to 60% and less than 85%),3 (Level 3: growth control rate is greater than or equal to 40% and less than 60%),5 (Level 5: growth control rate is above 85%),3 (Level 3: growth control rate is greater than or equal to 40% and less than 60%),5 (Level 5: growth control rate is above 85%),4 (Level 4: growth control rate is greater than or equal to 60% and less than 85%)
COC(=O)C(C)O/N=C/c1cc(-n2c(=O)n(C)c(=S)n(C)c2=O)c(F)cc1C#N (racemic) [Compound 87],5 (Level 5: growth control rate is above 85%),5 (Level 5: growth control rate is above 85%),5 (Level 5: growth control rate is above 85%),5 (Level 5: growth control rate is above 85%),5 (Level 5: growth control rate is above 85%),5 (Level 5: growth control rate is above 85%)
CCOC(=O)C(C)O/N=C/c1cc(-n2c(=O)n(C)c(=S)n(C)c2=O)c(F)cc1C#N (racemic) [Compound 88],5 (Level 5: growth control rate is above 85%),5 (Level 5: growth control rate is above 85%),5 (Level 5: growth control rate is above 85%),5 (Level 5: growth control rate is above 85%),5 (Level 5: growth control rate is above 85%),5 (Level 5: growth control rate is above 85%)
